Columns and labels:
[1] = Plasma ALT levels in AAV-HBV mice (Examples 14-16); type: in vivo
Protocol: At week 4 (D-14) and week 5 (D-7) post-modeling, on the day prior to dosing (D0), and weekly post-dosing, 200 µL of blood was collected from the inner canthus and added to an EDTA-K2 tube, followed by centrifugation at 1000 g for 10 minutes to obtain plasma. The 12 mice in the two groups were subjected to challenge on D60. 200 µL of blood was collected from the inner canthus on D63, D67, D74, and D81, respectively, and added to an EDTA-K2 tube, followed by centrifugation at 1000 g for 10 minutes to obtain plasma. 20 µL of plasma was added to 980 µL of PBS, vortexed thoroughly, and analyzed for HBsAg, HBV DNA, HBeAg, and ALT levels. Separately, 15 µL of plasma was added to 210 µL of PBS, vortexed thoroughly, and analyzed for HBsAb levels. All processed samples to be tested were analyzed by Guangzhou Huayin Medical Research Institute. The remaining plasma was stored at - 80°C.
Blood was collected from all animals via submandibular venipuncture on Days -2, 6, 13, 20, 27, and 34. The collected blood samples were anticoagulated with EDTA and centrifuged at 5000 rpm for 10 minutes to obtain serum. After blood collection, the serum was separated, diluted with PBS, and sent for analysis. A 10 µL aliquot of serum was taken from each sample, diluted to 500 µL with PBS (50-fold dilution), and sent to Beijing DIAN Medical Laboratory Co., Ltd. for analysis of serum HBV DNA, HBeAg, and HBsAg. A 30 µL aliquot of serum was taken from each sample, diluted to 120 µL with PBS (4-fold dilution), and sent to Beijing DIAN Medical Laboratory Co., Ltd. for analysis of serum ALT. The remaining plasma was stored at -80°C.

HBV = assay: AAV-HBV mouse model, low dose 0.5 mg/kg (Example 15); type: in vivo, AAV-HBV mice; conditions: for Log10 HBV DNA (IU/mL) / Log10 HBeAg (S/CO) / Log10 HBsAg (IU/mL) / HBsAb: plasma; for Log10 HBV DNA (IU/mL) / Log10 HBeAg (S/CO) / Log10 HBsAg (IU/mL): AAV-HBV mice, siRNA 0.5 mg/kg s.c. D0/7/14, ETV 0.1 mg/kg daily i.g.
Protocol: In this example, several sequences were exemplarily selected, such as the sequences C207S-DV32SPG5, C207S-DV29SPG5, C418S-DV34SPd7BG5, and C1575-DV27PG5 from Example 14, as shown in Table 49. The in vivo efficacy of these RNAi agents at a low dose (e.g., 0.5 mg/kg) was analyzed using an AAV-HBV mouse model.
Refer to Example 7. Table 51-10: Details of grouping and dosing

AGT mRNA = assay: Inhibition of AGT mRNA expression in primary human hepatocytes via free uptake, qRT-PCR (Example 24); type: cell-based; conditions: 0.0064 nM to 100 nM, read-out: IC50 against AGT
Protocol: The inhibitory effects of the test samples on AGT mRNA expression in primary human hepatocytes were evaluated by qRT-PCR.
The culture medium was pre-warmed at a constant temperature of 37°C for at least 30 minutes. 300 µL of PBS was added to each well of a collagen-coated 24-well plate, which was shaken several times, and the PBS was aspirated. A cryovial containing hepatocytes was removed from liquid nitrogen, placed in a 37°C water bath, and gently shaken until only a small amount of ice crystals remained in the vial. The cell suspension was poured into thawing medium in one step. 1 mL of thawing medium was pipetted to rinse the inner wall of the cryovial 2 to 3 times. The cell suspension in thawing medium was mixed by inversion. The vial was centrifuged at 50 g for 5 minutes at room temperature, with acceleration set to 5 and deceleration set to 3. The cell suspension was diluted to 3 × 10^5 cells/mL in seeding medium, seeded into a 24-well plate at 0.5 mL per well, followed by incubation in an incubator for 24 hours.
The test samples were diluted to 100 to 0.0064 nM in primary human hepatocyte maintenance medium. […]
The RNA expression levels of the target gene in each sample were calculated based on Ct values using the ΔΔCt relative quantification method. Relative expression of the target gene was expressed as 2^-ΔΔCt. […]

C=C1[C@H](CO)[C@@H](O)C[C@@H]1n1cnc2c(=O)[nH]c(N)nc21 [entecavir] showed an ALT ([1]; D7, Example 15 (low dose 0.5 mg/kg)) of 75 U/L, an ALT ([1]; D14, Example 15 (low dose 0.5 mg/kg)) of 75 U/L and an ALT ([1]; D21, Example 15 (low dose 0.5 mg/kg)) of 75 U/L. It also gave an ALT ([1]; D28, Example 15 (low dose 0.5 mg/kg)) of 75 U/L, an ALT ([1]; D35, Example 15 (low dose 0.5 mg/kg)) of 75 U/L and an ALT ([1]; D42, Example 15 (low dose 0.5 mg/kg)) of 75 U/L. The “Number of mice producing HBsAb” value (HBV; D7, low dose 0.5 mg/kg) was 0, the “Number of mice producing HBsAb” value (HBV; D14, low dose 0.5 mg/kg) was 0 and the “Number of mice producing HBsAb” value (HBV; D21, low dose 0.5 mg/kg) was 0. For the same molecule, the “Number of mice producing HBsAb” value (HBV; D28, low dose 0.5 mg/kg) was 0, the “Number of mice producing HBsAb” value (HBV; D35, low dose 0.5 mg/kg) was 0 and the “Number of mice producing HBsAb” value (HBV; D42, low dose 0.5 mg/kg) was 0. For the same molecule, the “Number of mice producing HBsAb” value (HBV; D49, low dose 0.5 mg/kg) was 0, the “Number of mice producing HBsAb” value (HBV; D56, low dose 0.5 mg/kg) was 0 and the “Log10 HBV DNA (IU/mL)” value (HBV; D0) was 6.91 ± 0.58 IU/mL. For the same molecule, the “Log10 HBeAg (S/CO)” value (HBV; D0) was 3.73 ± 0.06 S/CO, the “Log10 HBsAg (IU/mL)” value (HBV; D0) was 3.47 ± 0.34 IU/mL and the “Log10 HBV DNA (IU/mL)” value (HBV; D7) was 4.49 ± 0.54 IU/mL. For the same molecule, the “Log10 HBeAg (S/CO)” value (HBV; D7) was 3.72 ± 0.05 S/CO, the “Log10 HBsAg (IU/mL)” value (HBV; D7) was 3.50 ± 0.33 IU/mL and the “Log10 HBV DNA (IU/mL)” value (HBV; D14) was 3.85 ± 0.24 IU/mL. The “Log10 HBeAg (S/CO)” value (HBV; D14) was 3.72 ± 0.03 S/CO, the “Log10 HBsAg (IU/mL)” value (HBV; D14) was 3.54 ± 0.25 IU/mL and the “Log10 HBV DNA (IU/mL)” value (HBV; D21) was 3.89 ± 0.31 IU/mL. The “Log10 HBeAg (S/CO)” value (HBV; D21) was 3.66 ± 0.05 S/CO, the “Log10 HBsAg (IU/mL)” value (HBV; D21) was 3.74 ± 0.14 IU/mL and the “Log10 HBV DNA (IU/mL)” value (HBV; D28) was 3.77 ± 0.37 IU/mL. The “Log10 HBeAg (S/CO)” value (HBV; D28) was 3.71 ± 0.06 S/CO, the “Log10 HBsAg (IU/mL)” value (HBV; D28) was 3.94 ± 0.27 IU/mL and the “Log10 HBV DNA (IU/mL)” value (HBV; D35) was 3.74 ± 0.25 IU/mL. For the same molecule, the “Log10 HBeAg (S/CO)” value (HBV; D35) was 3.66 ± 0.05 S/CO, the “Log10 HBsAg (IU/mL)” value (HBV; D35) was 3.96 ± 0.39 IU/mL and the “Log10 HBV DNA (IU/mL)” value (HBV; D42) was 3.63 ± 0.08 IU/mL. For the same molecule, the “Log10 HBeAg (S/CO)” value (HBV; D42) was 3.68 ± 0.05 S/CO, the “Log10 HBsAg (IU/mL)” value (HBV; D42) was 4.04 ± 0.40 IU/mL and the “Log10 HBV DNA (IU/mL)” value (HBV; D49) was 3.97 ± 0.13 IU/mL. For the same molecule, the “Log10 HBeAg (S/CO)” value (HBV; D49) was 3.69 ± 0.08 S/CO, the “Log10 HBsAg (IU/mL)” value (HBV; D49) was 4.22 ± 0.33 IU/mL and the “Log10 HBV DNA (IU/mL)” value (HBV; D56) was 4.04 ± 0.32 IU/mL. For the same molecule, the “Log10 HBeAg (S/CO)” value (HBV; D56) was 3.70 ± 0.04 S/CO, the “Log10 HBsAg (IU/mL)” value (HBV; D56) was 4.20 ± 0.30 IU/mL and the “Log10 HBV DNA (IU/mL)” value (HBV; D-7 (before dosing)) was 6.65 ± 0.58 IU/mL. The “Log10 HBeAg (S/CO)” value (HBV; D-7 (before dosing)) was 3.77 ± 0.06 S/CO, the “Log10 HBsAg (IU/mL)” value (HBV; D-7 (before dosing)) was 3.36 ± 0.26 IU/mL and the HBsAb (HBV; D7, low dose 0.5 mg/kg) was 30 mIU/mL. The HBsAb (HBV; D14, low dose 0.5 mg/kg) was 30 mIU/mL, the HBsAb (HBV; D21, low dose 0.5 mg/kg) was 30 mIU/mL and the HBsAb (HBV; D28, low dose 0.5 mg/kg) was 30 mIU/mL. It also gave an HBsAb (HBV; D35, low dose 0.5 mg/kg) of 30 mIU/mL, an HBsAb (HBV; D42, low dose 0.5 mg/kg) of 30 mIU/mL and an HBsAb (HBV; D49, low dose 0.5 mg/kg) of 30 mIU/mL. The HBsAb (HBV; D56, low dose 0.5 mg/kg) was 30 mIU/mL.

Molecule Zilebesiran has an IC50 (AGT mRNA) of 7.07 nM.
